# Experiments:
# sEH [1] = test system: sEH; set-up: method as in earlier work; conditions: fine-tuning set; BindingDB; read-out: potency on target (IC50 for sEH); cited from earlier work
# THRβ [2] = test system: THRβ; set-up: method as in earlier work; conditions: fine-tuning set; BindingDB; read-out: potency on target (EC50 for THRβ); cited from earlier work
# FFAR1 = molecular target: T1, FFAR1 (Homo sapiens, UniProt O14842); set-up: method as in earlier work; conditions: fine-tuning set; BindingDB; read-out: potency on target (EC50 for FFAR1); cited from earlier work
# T1 construct: expressed in transfected cells
# T1 sequence (O14842 whole entry): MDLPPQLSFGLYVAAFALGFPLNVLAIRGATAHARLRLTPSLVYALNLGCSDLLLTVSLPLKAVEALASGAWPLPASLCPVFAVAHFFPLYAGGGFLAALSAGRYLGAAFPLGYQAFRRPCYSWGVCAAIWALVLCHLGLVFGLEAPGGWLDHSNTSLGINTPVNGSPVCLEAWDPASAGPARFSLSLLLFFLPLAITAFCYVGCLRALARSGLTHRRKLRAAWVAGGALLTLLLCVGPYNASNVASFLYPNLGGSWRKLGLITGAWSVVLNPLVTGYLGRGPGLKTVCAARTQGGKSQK
# sEH [3] = molecular target: T2, sEH (Homo sapiens, UniProt P34913); assay: sEH enzyme activity assay with fluorogenic substrate PHOME; type: biochemical; conditions: mean, n ≥ 3
# T2 construct: His tag (inferred from HisTrap purification with imidazole elution); made in house; own inference
# T2 sequence (P34913 1-555): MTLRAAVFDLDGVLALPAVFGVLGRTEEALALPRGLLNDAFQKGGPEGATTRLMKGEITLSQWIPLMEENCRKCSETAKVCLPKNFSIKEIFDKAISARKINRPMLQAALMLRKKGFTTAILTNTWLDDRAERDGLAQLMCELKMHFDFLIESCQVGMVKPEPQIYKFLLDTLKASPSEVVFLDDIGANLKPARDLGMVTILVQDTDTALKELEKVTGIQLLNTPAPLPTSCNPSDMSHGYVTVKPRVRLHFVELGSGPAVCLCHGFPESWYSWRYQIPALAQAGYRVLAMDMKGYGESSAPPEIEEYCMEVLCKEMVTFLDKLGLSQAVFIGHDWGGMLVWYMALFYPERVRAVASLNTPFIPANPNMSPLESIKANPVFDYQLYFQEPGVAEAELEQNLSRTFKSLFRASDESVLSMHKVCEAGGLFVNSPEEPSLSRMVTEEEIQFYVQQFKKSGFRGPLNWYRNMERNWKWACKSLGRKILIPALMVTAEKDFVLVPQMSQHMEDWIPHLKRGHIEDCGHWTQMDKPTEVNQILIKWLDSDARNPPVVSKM
# Source text: (§1) Compound 7 was originally designed with tert-butyloxy motif which was replaced by tert-butyl for improved chemical stability. The dual ligand candidates were characterized in functional assays for the targets of interest using cellular Gal4-hybrid reporter gene assays[43] to determine FXR, THRβ and PPARδ modulation and an enzyme activity assay[44] with the fluorogenic substrate PHOME to test sEH inhibition (Table 1). In vitro characterization of the CLM designed dual FXR/sEH modulators 1–3 confirmed engagement of both targets by all three compounds with sub-micromolar to low micromolar potencies. […] All designed PPARδ/sEH modulators (7–9) were confirmed as dual ligands of the intended targets. 7 emerged as remarkably potent sEH inhibitor endowed with micromolar PPARδ agonist activity.
# Soluble epoxide hydrolase (sEH) was purified as described by Hahn et al.[68] and Lukin et al.[69], respectively. Protein expression was carried out in 500 ml ZYP5052 autoinduction medium containing Kanamycin (100 mg/L) with lactose uptake-dependent induction. The fermentation procedure started at 37 °C and 200 rpm until the OD600 reached approximately 1.0. Then the temperature was reduced to 16 °C. After 24–36 h the cells (OD600 ≈ 15.0) were harvested by centrifugation at 5000 × g (4 °C, 20 min). Pellets were resuspended in a resuspension buffer containing Tris (50 mM), NaCl (0.5 M) and MgCl2 (10 mM) at pH 8 and sonicated twice for 15 s on ice. The sonicated suspension was centrifuged (18,000 × g, 30 min, 4 °C) and the supernatant was ultracentrifuged (100,000 × g, 1 h 10 min, 4 °C). The ultracentrifugation supernatant was loaded on a 5 ml HisTrap® FF (GE Healthcare, München, Germany) column at a flow rate of 2 ml/min and washed with washing buffer containing Tris (50 mM), NaCl (0.5 M), MgCl2 (10 mM), imidazole (20 mM) and DTT (3 mM) at pH 8, and eluted at 120 mM imidazole. The fractions containing hsEH after SDS-PAGE fraction analysis were pooled. The identity of hsEH was confirmed by Western Blotting and hsEH hydrolase activity assay. The inhibitory potency of the compounds was determined using a fluorescence-based enzyme activity assay in which PHOME (3-phenyl-cyano(6-methoxy-2-naphthalenyl)methylester-2-oxiraneacetic acid) is metabolized by sEH hydrolase towards a fluorescent naphthalene aldehyde. Dilution series of the compounds were incubated for 30 min with recombinant sEH (final protein concentration 3 nM). Subsequently, the fluorogenic substrate PHOME at final concentration of 50 μM was added, and the fluorescence was measured every minute for 45 min using a Tecan plate reader (ex: 360 nm, em: 465 nm; bandwidth 35 nm). Inhibition in percent was plotted against the logarithmic test compound concentration and IC50-values were calculated using the “log(Inhibitor) vs. Response – Variable slope (four parameters)” equation in GraphPad Prism 7.
# FXR [4] = molecular target: T3, FXR (Homo sapiens, UniProt Q96RI1); assay: Gal4-hybrid reporter gene assay FXR; type: cell-based; conditions: mean, n ≥ 3
# T3 construct: expressed in transfected cells; host or cells: HEK293T
# T3 sequence (Q96RI1 262-486 limits assumed): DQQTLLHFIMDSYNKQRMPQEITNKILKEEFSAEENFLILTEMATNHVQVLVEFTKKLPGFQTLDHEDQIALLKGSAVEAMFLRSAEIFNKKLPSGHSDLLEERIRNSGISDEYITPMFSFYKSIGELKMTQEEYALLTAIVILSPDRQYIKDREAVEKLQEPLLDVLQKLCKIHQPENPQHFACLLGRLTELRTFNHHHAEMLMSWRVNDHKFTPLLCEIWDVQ
# Experimental: The dual ligand candidates were characterized in functional assays for the targets of interest using cellular Gal4-hybrid reporter gene assays[43] to determine FXR, THRβ and PPARδ modulation and an enzyme activity assay[44] with the fluorogenic substrate PHOME to test sEH inhibition (Table 1).
# After 24 h, the medium was changed to Opti-MEM without supplements. Transient transfection was performed using Lipofectamine LTX reagent (Invitrogen, Carlsbad, CA, USA) according to the manufacturer’s protocol with pFR-Luc (100 ng/well) as reporter plasmid, pRL-SV40 (2 ng/well) for normalization of transfection efficiency and cell growth, and one pFA-CMV-hNR-LBD clone coding for the hinge region and ligand binding domain (LBD) of the NR of interest. Five hours after transfection, the cells were incubated with Opti-MEM supplemented with penicillin (100 U/mL) and streptomycin (100 µg/mL), additionally containing 0.1% DMSO and the respective test compound or 0.1% DMSO alone as untreated control. After overnight (14–16 h) incubation, luminescence was measured using the Dual-Glo® Luciferase Assay System (Promega, Madison, WI, USA) according to the manufacturer’s protocol with a Tecan Spark® 10 M multimode microplate reader. Relative light units (RLU) for normalization of transfection efficiency and cell growth were calculated by dividing firefly luminescence by renilla luminescence and multiplication by 1000. Fold activation was obtained by dividing the mean RLU of a test compound at a respective concentration by the mean RLU of the untreated control. All samples were tested in duplicates in at least three biologically independent experiments. For dose response curve fitting and calculation of the EC50/IC50 values, the equation “[Agonist]/[Inhibitor] vs. response – Variable slope (four parameters)” was used in GraphPad Prism 7.
# THRβ [5] = molecular target: T4, THRβ (Homo sapiens, UniProt P10828); assay: Gal4-hybrid reporter gene assay THRβ; type: cell-based; conditions: for THRβ agonism: at non-toxic concentrations
# T4 construct: expressed in transfected cells; host or cells: HEK293T
# T4 sequence (P10828 217-461 limits assumed): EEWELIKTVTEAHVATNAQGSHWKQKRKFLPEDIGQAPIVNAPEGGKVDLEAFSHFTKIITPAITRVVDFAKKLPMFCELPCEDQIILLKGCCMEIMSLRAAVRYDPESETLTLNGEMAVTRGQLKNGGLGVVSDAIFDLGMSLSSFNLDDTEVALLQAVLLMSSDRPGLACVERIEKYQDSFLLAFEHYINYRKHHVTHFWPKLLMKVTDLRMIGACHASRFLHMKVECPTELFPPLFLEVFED
# Source text: as §1
# HEK293T cells (ATCC, CRL-1573) were cultured in Dulbecco’s modified eagle medium (DMEM), high glucose, supplemented with 10% FCS, sodium pyruvate (1 mM), penicillin (100 U/mL), and streptomycin (100 µg/mL) to 70–80% confluence at 37 °C and 5% CO2 and seeded in clear 96-well plates with a density of 40,000 cells/well. After 24 h, the medium was changed to Opti-MEM without supplements. Transient transfection was performed using Lipofectamine LTX reagent (Invitrogen, Carlsbad, CA, USA) according to the manufacturer’s protocol with pFR-Luc (100 ng/well) as reporter plasmid, pRL-SV40 (2 ng/well) for normalization of transfection efficiency and cell growth, and one pFA-CMV-hNR-LBD clone coding for the hinge region and ligand binding domain (LBD) of the NR of interest. Five hours after transfection, the cells were incubated with Opti-MEM supplemented with penicillin (100 U/mL) and streptomycin (100 µg/mL), additionally containing 0.1% DMSO and the respective test compound or 0.1% DMSO alone as untreated control. After overnight (14–16 h) incubation, luminescence was measured using the Dual-Glo® Luciferase Assay System (Promega, Madison, WI, USA) according to the manufacturer’s protocol with a Tecan Spark® 10 M multimode microplate reader. Relative light units (RLU) for normalization of transfection efficiency and cell growth were calculated by dividing firefly luminescence by renilla luminescence and multiplication by 1000. Fold activation was obtained by dividing the mean RLU of a test compound at a respective concentration by the mean RLU of the untreated control. All samples were tested in duplicates in at least three biologically independent experiments. For dose response curve fitting and calculation of the EC50/IC50 values, the equation “[Agonist]/[Inhibitor] vs. response – Variable slope (four parameters)” was used in GraphPad Prism 7. The following pFA-CMV-hNR-LBD clones and reference ligands were used: THRβ (pFA-CMV-hTHRβ-LBD[71], 1 µM T3), PPARδ (pFA-CMV-hPPARδ-LBD[72], 1 µM L-165,041), FXR (pFA-CMV-hFXR-LBD[73], 1 µM GW4064).
# FXR [6] = test system: FXR; set-up: method as in earlier work; conditions: fine-tuning set; BindingDB; read-out: potency on target (EC50 for FXR); cited from earlier work
# [7] = Gal4-hybrid reporter gene assay, mean, n ≥ 3
smiles,measurement,setting,value
CC(C)c1cc(Oc2c(Cl)cc(-n3nc(C#N)c(=O)[nH]c3=O)cc2Cl)nn(C)c1=O,EC50,THRβ [2],40 nM
COc1ccc(F)c(C2CCC(COc3cccc(C(C4CC4)C(C)C(=O)O)c3)CC2)c1 (stereo not shown),EC50,FFAR1,2 nM
O=C(O)c1ccc(-c2ccc(C(=O)NCc3c(Cl)cccc3Cl)cc2)cc1 [Compound 3],IC50,sEH [3],21000 nM
same,FXR: fold act. at 50 µM,FXR [4]; at 50 µM,3.4 fold
CC(C)(C)N1CCOC(COc2ccc(NC(=O)NC3CCCCC3)cc2)C1 (stereo not shown),IC50,sEH [1],77 nM
CC(C)c1onc(-c2c(Cl)cccc2Cl)c1COc1ccc(C(=O)O)cc1 [Compound 4],THRβ: activity,THRβ [5]; [7],inactive
same,THRβ agonism,THRβ [5],no detectable
CC#CC(CC(=O)O)c1ccc(OCc2cccc(CN(Cc3ccsc3)C3CCOCC3)c2)cc1 (stereo not shown),EC50,FFAR1,8 nM
CC(C(=O)O)C(c1ccc2c(c1)OC(C1CCN(C(C)c3cc(F)ccc3OC(F)(F)F)CC1)CC2)C1CC1 (stereo not shown),EC50,FFAR1,2 nM
CC(C)c1cc(Oc2c(Cl)cc(NC(=O)C(=O)O)cc2Cl)n[nH]c1=O,EC50,THRβ [2],120 nM
O=C(NCc1ccc(Br)cc1OC(F)(F)F)c1ccc(OCCC(F)(F)F)nc1,IC50,sEH [1],12 nM
O=C(O)c1ccc(CNC(=O)c2ccc(-c3ccccc3)cc2)cc1 [Compound 2],IC50,sEH [3],8100 nM
same,EC50,FXR [4],440 nM
CC(C)c1noc(C2CCN(C(=O)NC3CC3c3ccccc3)CC2)n1 (stereo not shown),IC50,sEH [1],6 nM
CC(C)c1onc(-c2c(Cl)cccc2Cl)c1COc1ccc(Cc2ccc(OCC(=O)O)cc2)cc1 [Compound 6],THRβ: fold act. at 15 µM,"THRβ [5]; Gal4-hybrid reporter gene assay, at 15 µM, mean, n ≥ 3",5 fold
same,THRβ agonism,THRβ [5],weak
same,EC50,FXR [4],1000 nM
Cc1cccc(C)c1OCc1noc(C(C)C)c1COc1ccc(C=Cc2cccc(C(=O)O)c2)c(Cl)c1,EC50,FXR [6],56 nM
Cc1c(CC(=O)O)c2ccccc2n1Cc1ccc(O)c(C(C)C)c1,EC50,THRβ [2],150 nM
CC(C)n1nc(C(=O)O)cc1C1CC1c1ccc(OCc2c(-c3c(Cl)cccc3Cl)noc2C2CC2)cc1Cl (stereo not shown),EC50,FXR [6],4 nM
CC(C)(C)c1ccc(CNC(=O)c2ccc(C(=O)O)cc2)cc1 [Compound 1],IC50,sEH [3],4100 nM
same,EC50,FXR [4],370 nM
CC(C)c1onc(-c2c(Cl)cccc2Cl)c1COc1ccc(CC(=O)O)cc1 [Compound 5],THRβ: activity,THRβ [5]; [7],inactive
same,THRβ agonism,THRβ [5],no detectable
same,EC50,FXR [4],11000 nM
COc1ccc(CNc2c(-c3cc(Cl)ccn3)nc3ccc(Cl)cn23)cc1,EC50,FXR [6],0.3 nM
CC(C)c1cnn(-c2c(Cl)cccc2Cl)c1COc1ccc(C=Cc2cccc(C(=O)O)c2)c(Cl)c1,EC50,FXR [6],20 nM
CC(C)c1onc(-c2c(Cl)cccc2Cl)c1COc1ccc2sc(-c3cccc(C(=O)O)c3)cc2c1,EC50,FXR [6],32 nM
CN(Cc1cccc(C(=O)O)c1)c1ccc(OCc2c(-c3c(Cl)cccc3Cl)noc2C2CC2)nc1C(F)(F)F,EC50,FXR [6],9 nM
CC#CC(CC(=O)O)c1ccc(NC(=O)C(=O)Nc2cccc(C(C)(C)C)c2)cc1 (stereo not shown),EC50,FFAR1,4 nM
O=C(O)c1ccc2nc(N3CCCC(OCc4c(-c5ccccc5OC(F)(F)F)noc4C4CC4)CC3)sc2c1 (stereo not shown),EC50,FXR [6],7 nM
O=C(O)CCc1ccc(OC2CCN(C(=O)NC3C(c4ccccc4)C3c3ccccc3)CC2)cc1 (stereo not shown),IC50,sEH [1],2 nM
CCOC(CC(=O)O)c1ccc(OC2CCc3c(Cl)cccc32)cc1 (stereo not shown),EC50,FFAR1,5 nM

# Reference: article PMC11390726, “Automated design of multi-target ligands by generative deep learning” (Nature Communications, 2024)
